Reference: article PMC7915867, “Discovery of a Small Molecule Inhibitor of Human Adenovirus Capable of Preventing Escape from the Endosome” (International Journal of Molecular Sciences, 2021)
Where “and” joins values, the source holds several entries; their conditions need not be identical. Identical values can stand only once.

Columns and labels:
[1] = tested on: wild-type HAdV5; assay: Nuclear-associated HAdV genomes; format: cell-based, human adenovirus; conditions: 45 min postinfection, A549 cells, 2000 vp/cell, 10-fold IC50
Description: The nuclear delivery of HAdV genomes was evaluated by real-time PCR following nuclear isolation from infected cells. […] Forty-five minutes after infection, A549 cells were trypsinized, collected, and then washed twice with PBS. After that, we separated cytoplasmic and nuclear fractions using a hypotonic buffer solution and NP-40 detergent and resuspended the cell pellet in 500 μL of 1 × hypotonic buffer (20 mM Tris-HCl pH 7.4, 10 mM NaCl, 3 mM MgCl2). After incubation for 15 min at 4 °C, 25 μL of NP-40 was added and the samples were vortexed. The homogenates were centrifuged for 10 min at 835g and 4 °C. After the removal of the cytoplasmic fraction (supernatant), HAdV DNA was separated from the nuclear fraction (pellet) and from the cytoplasmic fraction using the E.Z.N.A.® Tissue DNA Kit (Omega Bio-tek, Norcross, GA, USA).

[2] = tested on: HAdV5; assay: HAdV-mediated endosome disruption (α-sarcin co-delivery assay); format: cell-based, human adenovirus; conditions: A549 cells, 10-fold IC50, virus below 12 ng
Description: A549 cells (~20,000 cells/well) were incubated in DMEM without cysteine or methionine supplemented with 10% dialyzed FBS [DMEM (−)] in black 96-well plates for 1 h before infection. […] The medium was then removed and replaced with 50 μL DMEM (−) containing 0.1 mg/mL α-sarcin (Santa Cruz Biotechnology, Dallas, TX, USA) and the virus and drug mixtures. After 2 h at 37 °C, the Click-iT HPG Alexa Fluor 488 Protein Synthesis Assay Kits (Invitrogen, MA, USA) were used to analyze protein synthesis according to the manufacturer’s instructions. The incorporation of the amino acid analog of methionine L-homopropargylglycine (HPG) containing Alexa Fluor 488 azide was measured using a Typhoon 9410 imager (GE Healthcare Life Sciences, MA, USA) and calculated subtracting the background level of the control well containing L-homopropargylglycine (HPG) and α-sarcin but not virus (100% incorporation).

[3] = tested on: HAdV-5 DNA replication; assay: HAdV DNA quantification by real-time PCR (DNA replication); format: cell-based, human adenovirus; conditions: Human adenovirus sp., A549, 24 h; read-out: Inhibition of HAdV-5 DNA replication (qPCR)
Description: All samples were carried out in duplicate. After incubation for 24 h at 37 °C, DNA was purified from the cell lysate with the E.Z.N.A.® Tissue DNA Kit (Omega Bio-tek, Norcross, GA, USA) following the manufacturer’s instructions. TaqMan primers and probes for a common region of the HAdV5 hexon were designed with the GenScript Real-Time PCR (TaqMan) Primer Design software (GenScript, Leiden, Netherlands). Oligonucleotides sequences were: AQ1: 5′-GCCACGGTGGGGTTTCTAAACTT-3′; AQ2: 5′-GCCCCAGTGGTCTTACATGCACAT-3′; Probe: 6-FAM-5′-TGCACCAGACCCGGGCTCAGGTACTCCGA-3′-TAMRA. Real-time PCR mixtures contained 9.5 μL of the purified DNA, AQ1 and AQ2 at a concentration of 200 nM each and Probe at a concentration of 50 nM in a total volume of 25 μL. The PCR cycling protocol was 95 °C for 3 min followed by 40 cycles of 95 °C for 10 s and 60 °C for 30 s. Human glyceraldehyde-3-phosphate dehydrogenase (GAPDH) gene was applied as internal control. Oligonucleotides sequences for GAPDH and conditions were previously reported by Rivera et al..
For quantification, gene fragments from hexon and GAPDH were cloned into the pGEM-T Easy vector (Promega, MA, USA), and known concentrations of template were used to produce a standard curve in parallel for each experiment. All assays were done in thermal cycler LightCycler® 96 System (Roche, Basel, Switzerland).

[4] = tested on: HAdV-GFP; assay: Thermostability assay (capsid stabilization); format: cell-based, human adenovirus; conditions: 50 μM, A549 cells
Description: HAdV-GFP (37.5 ng) was incubated with compound 16 (50 µM) or the same volume of DMSO for 1 h in complete DMEM. Parallel samples were incubated for 10 min at the indicated temperatures, cooled to r.t., and added to A549 cells on ice to synchronize the infection. After the incubation, cells were washed twice with PBS 1x to remove the nonattached virus and the excess of compound 16 and DMSO. Cells were then incubated for 24 h at 37 °C and 5% CO2 before being visualized for GFP expression in an Olympus inverted microscope Model IX71 (Hamburg, Germany) and analyzed by capturing representative images of each condition using the CellSens Dimension platform (Olympus, Hamburg, Germany).

[5] = tested on: wild-type HAdV5; assay: Virus yield reduction (virus burst assay); format: cell-based, human adenovirus
Description: After 48 h, cells were harvested and subjected to three rounds of freeze/thaw. Serial dilutions of clarified lysates were titrated on A549 cells (3 × 10^4 cells/well), and we calculated TCID50 values using an endpoint dilution method.

[6] = tested on: human cytomegalovirus (HCMV); assay: HCMV DNA replication assay; format: cell-based; conditions: HFF cells, 72 h postinfection, 10-fold IC50 of HAdV plaque assay
Description: The broad antiviral activity of compound 16 was tested using human cytomegalovirus (HCMV) in a DNA replication assay. To avoid the influence of newly generated viral particles from subsequent rounds of infection, HCMV DNA was extracted from HFF cells at 72 h postinfection and quantified in a single round of infection as a measurement of the DNA replication efficiency.

[7] = tested on: HAdV5-GFP; assay: Time of addition assay; format: cell-based, human adenovirus; conditions: 10-fold IC50; 293β5 cells, HAdV5-GFP 2000 vp/cell
[8] = tested on: HAdV5-GFP; assay: microbe, parasite or virus in culture; format: cell-based, human adenovirus
Description: Compounds were measured at concentrations of 10 μM and in a dose−response assay ranging from 10 to 0.3 μM using low MOI infections (0.06 vp/cell) in a plaque assay. […] Cells were infected with HAdV5-GFP (0.06 vp/cell) and rocked for 2 h at 37 °C, when cells reached 80%–90% confluency. When the incubation was finished, the inoculum was removed followed by washing the cells once with PBS. […] The compounds were also added to the mixture in concentrations ranging from 10 to 0.3 μM. After incubation for 7 days at 37 °C, we scanned plates with a Typhoon FLA 9000 imager (GE Healthcare Life Sciences, MA, USA) and quantified plaques with ImageJ [47].

[9] = Cytotoxicity assay (AlamarBlue); format: cell-based; conditions: human, A549 cells, A549 cell line
Description: The cytotoxicity of these derivatives was tested by commercial kit AlamarBlue® (Ref. DAL1025, Invitrogen, MA, USA). […] The cytotoxic concentration 50 (CC50) value was obtained by using the statistical package GraphPad Prism. This assay was performed in duplicate.

O=C(NCC1CCCCC1)c1cc(Cl)ccc1O [Compound 16, 5-Chloro-N-(cyclohexylmethyl)-2-hydroxybenzamide]
Inhibition of HAdV DNA accessibility to the nucleus [1]: more than 99%
HAdV-mediated endosome lysis [2]: prevented HAdV-mediated endosome lysis
inhibition at 7.8 µM [3]: 50%
GFP expression 24 h postinfection, virus heated to 48 °C [4]: significant levels of GFP expression
GFP expression 24 h postinfection, virus heated to 52 °C [4]: some residual expression
Virus yield reduction compared to niclosamide ([5]; 16 at 10-fold IC50 versus niclosamide 5 μM): 2.5 fold
Virus Yield Reduction ([5]; A549 cells, HAdV 100 vp/cell, 48 h, niclosamide 5 μM, 16 at 10-fold IC50, versus DMSO): 208 fold and 208 ± 108 fold
Decrease of total HCMV DNA compared to DMSO control [6]: 95%
Inhibition of HAdV infection, compound added at 0 min p.i. [7]: 95.3%
Inhibition of HAdV infection, compound added at 20 min p.i. [7]: 30.7%
Plaque Assay IC50 ([8]; HAdV5-GFP, low MOI, 293β5 cell line): submicromolar
inhibition at 10 µM ([8]; Human adenovirus sp., read-out: Plaque Assay (10 μM) (%) Inhibition): 100%
IC50 ([8]; Human adenovirus sp., read-out: Plaque Assay IC50): 0.78 ± 0.01 µM
Selectivity Index (SI) ([8]; ratio of CC50 to IC50 in plaque assay): 116.9
CC50 at 48 h [9]: 91.2 ± 18.4 µM
